# Reference: ChEMBL document CHEMBL1144369, “2-Ethoxybenzoxazole as a bioisosteric replacement of an ethyl benzoate group in a human rhinovirus (HRV) capsid binder” (Bioorg Med Chem Lett, 2005)
# Test system: Human rhinovirus sp.
# Test: Effective concentration against HRV serotype 16 (assay was run at least six times)
# Format: functional, organism-based
row,EC50,SMILES
1,15.2 ng/mL,CCOC(=O)c1ccc(OCCC2CCN(c3ccc(C)nn3)CC2)cc1 [PIRODAVIR]
2,108 ng/mL,Cc1cc(CCCOc2c(C)cc(-c3noc(C(F)(F)F)n3)cc2C)on1 [PLECONARIL]
3,7.72 ng/mL,CCOc1nc2cc(OCCC3CCN(c4ccc(C)nn4)CC3)ccc2o1

# Test system: Human rhinovirus sp.
# Test: Effective concentration against HRV-2
# Format: functional, organism-based
row,EC50,SMILES
1,2 ng/mL,CCCOc1nc2cc(OCCC3CCN(c4ccc(C)nn4)CC3)ccc2o1
2,159 ng/mL,COc1nc2cc(OCCC3CCN(c4ccc(C)nn4)CC3)ccc2o1

# Continued, compound first:
row,SMILES,EC50
1,CCSc1nc2ccc(OCCC3CCN(c4ccc(C)nn4)CC3)cc2s1,165 ng/mL
2,CCOc1nc2cc(OCCC3CCN(c4ccc(C)nn4)CC3)ccc2s1,7 ng/mL
3,CCOc1nc2ccc(OCCC3CCN(c4ccc(C)nn4)CC3)cc2s1,104 ng/mL
4,CCSc1nc2cc(OCCC3CCN(c4ccc(C)nn4)CC3)ccc2o1,2 ng/mL
5,Cc1ccc(N2CCC(CCOc3ccc4oc(C)nc4c3)CC2)nn1,> 500 ng/mL
6,CCOc1nc2cc(OCCC3CCN(c4ccc(C)nn4)CC3)ccc2o1,3 ng/mL

# Test system: Human rhinovirus sp.
# Test: Effective concentration against HRV serotype 86 (assay was run at least six times)
# Format: functional, organism-based
row,EC50,SMILES
1,9.56 ng/mL,CCOC(=O)c1ccc(OCCC2CCN(c3ccc(C)nn3)CC2)cc1 [PIRODAVIR]
2,70 ng/mL,Cc1cc(CCCOc2c(C)cc(-c3noc(C(F)(F)F)n3)cc2C)on1 [PLECONARIL]
3,8.74 ng/mL,CCOc1nc2cc(OCCC3CCN(c4ccc(C)nn4)CC3)ccc2o1

# Test system: Human rhinovirus sp.
# Test: Effective concentration against HRV-14
# Format: functional, organism-based
row,EC50,SMILES
1,20 ng/mL,CCCOc1nc2cc(OCCC3CCN(c4ccc(C)nn4)CC3)ccc2o1
2,99 ng/mL,COc1nc2cc(OCCC3CCN(c4ccc(C)nn4)CC3)ccc2o1

# Second part, the compound before the results:
row,SMILES,EC50
1,CCSc1nc2ccc(OCCC3CCN(c4ccc(C)nn4)CC3)cc2s1,49 ng/mL
2,CCOc1nc2cc(OCCC3CCN(c4ccc(C)nn4)CC3)ccc2s1,6 ng/mL
3,CCOc1nc2ccc(OCCC3CCN(c4ccc(C)nn4)CC3)cc2s1,14 ng/mL
4,CCSc1nc2cc(OCCC3CCN(c4ccc(C)nn4)CC3)ccc2o1,6 ng/mL
5,Cc1ccc(N2CCC(CCOc3ccc4oc(C)nc4c3)CC2)nn1,> 500 ng/mL
6,CCOc1nc2cc(OCCC3CCN(c4ccc(C)nn4)CC3)ccc2o1,7 ng/mL

# Test system: Human rhinovirus sp.
# Test: Effective concentration against HRV serotype 51 (assay was run at least six times)
# Format: functional, organism-based
row,EC50,SMILES
1,5.21 ng/mL,CCOC(=O)c1ccc(OCCC2CCN(c3ccc(C)nn3)CC2)cc1 [PIRODAVIR]
2,30.4 ng/mL,Cc1cc(CCCOc2c(C)cc(-c3noc(C(F)(F)F)n3)cc2C)on1 [PLECONARIL]
3,3.45 ng/mL,CCOc1nc2cc(OCCC3CCN(c4ccc(C)nn4)CC3)ccc2o1

# Test system: Human rhinovirus sp.
# Test: Median effective concentration against HRV serotypes; Number of serotypes 16
# Format: functional, organism-based
row,EC50,SMILES
1,4.54 ng/mL,CCOC(=O)c1ccc(OCCC2CCN(c3ccc(C)nn3)CC2)cc1 [PIRODAVIR]
2,49.6 ng/mL,Cc1cc(CCCOc2c(C)cc(-c3noc(C(F)(F)F)n3)cc2C)on1 [PLECONARIL]
3,3.88 ng/mL,CCOc1nc2cc(OCCC3CCN(c4ccc(C)nn4)CC3)ccc2o1

# Test system: Human rhinovirus sp.
# Test: Effective concentration against HRV serotype 63 (assay was run at least six times)
# Format: functional, organism-based
row,EC50,SMILES
1,0.83 ng/mL,CCOC(=O)c1ccc(OCCC2CCN(c3ccc(C)nn3)CC2)cc1 [PIRODAVIR]
2,62.3 ng/mL,Cc1cc(CCCOc2c(C)cc(-c3noc(C(F)(F)F)n3)cc2C)on1 [PLECONARIL]
3,0.3 ng/mL,CCOc1nc2cc(OCCC3CCN(c4ccc(C)nn4)CC3)ccc2o1

# Test system: Human rhinovirus sp.
# Test: Effective concentration against HRV serotype 39 (assay was run at least six times)
# Format: functional, organism-based
row,EC50,SMILES
1,1.8 ng/mL,CCOC(=O)c1ccc(OCCC2CCN(c3ccc(C)nn3)CC2)cc1 [PIRODAVIR]
2,44.9 ng/mL,Cc1cc(CCCOc2c(C)cc(-c3noc(C(F)(F)F)n3)cc2C)on1 [PLECONARIL]
3,0.53 ng/mL,CCOc1nc2cc(OCCC3CCN(c4ccc(C)nn4)CC3)ccc2o1

# Test system: Human rhinovirus sp.
# Test: Effective concentration against HRV serotype 29 (assay was run at least six times)
# Format: functional, organism-based
row,EC50,SMILES
1,3.74 ng/mL,CCOC(=O)c1ccc(OCCC2CCN(c3ccc(C)nn3)CC2)cc1 [PIRODAVIR]
2,45.4 ng/mL,Cc1cc(CCCOc2c(C)cc(-c3noc(C(F)(F)F)n3)cc2C)on1 [PLECONARIL]
3,7.28 ng/mL,CCOc1nc2cc(OCCC3CCN(c4ccc(C)nn4)CC3)ccc2o1

# Test system: Human rhinovirus sp.
# Test: Effective concentration against HRV serotype 45 (assay was run at least six times)
# Format: functional, organism-based
row,EC50,SMILES
1,> 5000 ng/mL,CCOC(=O)c1ccc(OCCC2CCN(c3ccc(C)nn3)CC2)cc1 [PIRODAVIR]
2,1910 ng/mL,Cc1cc(CCCOc2c(C)cc(-c3noc(C(F)(F)F)n3)cc2C)on1 [PLECONARIL]

# Test system: Human rhinovirus sp.
# Test: Effective concentration against HRV serotype 15 (assay was run at least six times)
# Format: functional, organism-based
row,EC50,SMILES
1,7.92 ng/mL,CCOC(=O)c1ccc(OCCC2CCN(c3ccc(C)nn3)CC2)cc1 [PIRODAVIR]
2,69.8 ng/mL,Cc1cc(CCCOc2c(C)cc(-c3noc(C(F)(F)F)n3)cc2C)on1 [PLECONARIL]
3,4.33 ng/mL,CCOc1nc2cc(OCCC3CCN(c4ccc(C)nn4)CC3)ccc2o1

# Test system: Human rhinovirus sp.
# Test: Effective concentration against HRV serotype 14 (assay was run at least six times)
# Format: functional, organism-based
row,EC50,SMILES
1,3.65 ng/mL,CCOC(=O)c1ccc(OCCC2CCN(c3ccc(C)nn3)CC2)cc1 [PIRODAVIR]
2,34.3 ng/mL,Cc1cc(CCCOc2c(C)cc(-c3noc(C(F)(F)F)n3)cc2C)on1 [PLECONARIL]
3,4.32 ng/mL,CCOc1nc2cc(OCCC3CCN(c4ccc(C)nn4)CC3)ccc2o1

# Test system: Human rhinovirus sp.
# Test: Effective concentration against HRV serotype 72 (assay was run at least six times)
# Format: functional, organism-based
row,EC50,SMILES
1,34.8 ng/mL,CCOC(=O)c1ccc(OCCC2CCN(c3ccc(C)nn3)CC2)cc1 [PIRODAVIR]
2,469 ng/mL,Cc1cc(CCCOc2c(C)cc(-c3noc(C(F)(F)F)n3)cc2C)on1 [PLECONARIL]
3,142 ng/mL,CCOc1nc2cc(OCCC3CCN(c4ccc(C)nn4)CC3)ccc2o1

# Test system: Human rhinovirus sp.
# Test: Effective concentration against HRV serotype 89 (assay was run at least six times)
# Format: functional, organism-based
row,EC50,SMILES
1,5.7 ng/mL,CCOC(=O)c1ccc(OCCC2CCN(c3ccc(C)nn3)CC2)cc1 [PIRODAVIR]
2,29.3 ng/mL,Cc1cc(CCCOc2c(C)cc(-c3noc(C(F)(F)F)n3)cc2C)on1 [PLECONARIL]
3,1.51 ng/mL,CCOc1nc2cc(OCCC3CCN(c4ccc(C)nn4)CC3)ccc2o1

# Test system: Human rhinovirus sp.
# Test: Effective concentration against HRV serotype 2 (assay was run at least six times)
# Format: functional, organism-based
row,EC50,SMILES
1,2.77 ng/mL,CCOC(=O)c1ccc(OCCC2CCN(c3ccc(C)nn3)CC2)cc1 [PIRODAVIR]
2,26.5 ng/mL,Cc1cc(CCCOc2c(C)cc(-c3noc(C(F)(F)F)n3)cc2C)on1 [PLECONARIL]
3,1.16 ng/mL,CCOc1nc2cc(OCCC3CCN(c4ccc(C)nn4)CC3)ccc2o1

# Test system: Human rhinovirus sp.
# Test: Effective concentration against HRV serotype 85 (assay was run at least six times)
# Format: functional, organism-based
row,EC50,SMILES
1,4.72 ng/mL,CCOC(=O)c1ccc(OCCC2CCN(c3ccc(C)nn3)CC2)cc1 [PIRODAVIR]
2,34 ng/mL,Cc1cc(CCCOc2c(C)cc(-c3noc(C(F)(F)F)n3)cc2C)on1 [PLECONARIL]
3,0.78 ng/mL,CCOc1nc2cc(OCCC3CCN(c4ccc(C)nn4)CC3)ccc2o1

# Test system: Human rhinovirus sp.
# Test: Effective concentration against HRV serotype 70 (assay was run at least six times)
# Format: functional, organism-based
row,EC50,SMILES
1,2.14 ng/mL,CCOC(=O)c1ccc(OCCC2CCN(c3ccc(C)nn3)CC2)cc1 [PIRODAVIR]
2,53.9 ng/mL,Cc1cc(CCCOc2c(C)cc(-c3noc(C(F)(F)F)n3)cc2C)on1 [PLECONARIL]
3,15.2 ng/mL,CCOc1nc2cc(OCCC3CCN(c4ccc(C)nn4)CC3)ccc2o1

# Test system: Human rhinovirus sp.
# Test: Effective concentration against HRV serotype 59 (assay was run at least six times)
# Format: functional, organism-based
row,EC50,SMILES
1,4.37 ng/mL,CCOC(=O)c1ccc(OCCC2CCN(c3ccc(C)nn3)CC2)cc1 [PIRODAVIR]
2,387 ng/mL,Cc1cc(CCCOc2c(C)cc(-c3noc(C(F)(F)F)n3)cc2C)on1 [PLECONARIL]
3,2.26 ng/mL,CCOc1nc2cc(OCCC3CCN(c4ccc(C)nn4)CC3)ccc2o1

# Test system: Human rhinovirus sp.
# Test: Effective concentration against HRV serotype 9 (assay was run at least six times)
# Format: functional, organism-based
row,EC50,SMILES
1,2.05 ng/mL,CCOC(=O)c1ccc(OCCC2CCN(c3ccc(C)nn3)CC2)cc1 [PIRODAVIR]
2,37.2 ng/mL,Cc1cc(CCCOc2c(C)cc(-c3noc(C(F)(F)F)n3)cc2C)on1 [PLECONARIL]
3,1.2 ng/mL,CCOc1nc2cc(OCCC3CCN(c4ccc(C)nn4)CC3)ccc2o1

# Test system: Human rhinovirus sp.
# Test: Effective concentration against HRV serotype 45 (assay was run for 3 times)
# Format: functional, organism-based
row,EC50,SMILES
1,> 250 ng/mL,CCOc1nc2cc(OCCC3CCN(c4ccc(C)nn4)CC3)ccc2o1

# Test system: Human rhinovirus sp.
# Test: Percent inhibition of HRV strains at a concentration of 0.064 ug/mL; no. of strains=100
# Format: functional
row,SMILES,inhibition at 0.064 µg/mL
1,CCOC(=O)c1ccc(OCCC2CCN(c3ccc(C)nn3)CC2)cc1 [PIRODAVIR],80%
